We go through 10 molecules from ChEMBL document CHEMBL1135126, “Identification of novel antifungal nonapeptides through the screening of combinatorial peptide libraries based on a hexapeptide motif” (Bioorg Med Chem Lett, 2002).

pIC50: −log10 of the molar value. ≈ marks a conversion by molar mass, not a printed value.

The subject of assay [1] is Candida albicans. The assay can be described thus: Concentration that substantially inhibit growth of Candida albicans. It counts as functional, organism-based.
The subject of assay [2] is Cryptococcus neoformans. Nature of the assay: Concentration that substantially inhibit the growth of Cryptococcus neoformans. It is filed as functional.

`CC[C@H](C)[C@H](NC(=O)[C@@H](Cc1ccccc1)NC(=O)[C@@H](Cc1c[nH]c2ccccc12)NC(=O)[C@@H](N)CCCN=C(N)N)C(=O)N[C@H](Cc1ccccc1)C(=O)N[C@@H](Cc1c[nH]cn1)C(=O)N[C@@H](CCCCN)C(=O)N[C@@H](CCCN=C(N)N)C(=O)N[C@@H](CCC(=O)O)C(N)=O`: in assay [1], the pIC50 was 5.37. This molecule also gave an MIC in assay [2] of 4.74 µM (≈ 6.25 µg/mL).
`CC[C@H](C)[C@H](NC(=O)[C@@H](Cc1ccccc1)NC(=O)[C@@H](Cc1c[nH]c2ccccc12)NC(=O)[C@@H](N)CCCN=C(N)N)C(=O)N[C@H](Cc1ccccc1)C(=O)N[C@@H](Cc1c[nH]cn1)C(=O)N[C@@H](CCCCN)C(=O)N[C@@H](CCCCN)C(=O)N[C@@H](CCC(N)=O)C(N)=O`: the pIC50 in assay [1] was 5.59. Further, in assay [2], the MIC stood at 2.37 µM (≈ 3.05 µg/mL).
The matching figures for `CC[C@H](C)[C@H](NC(=O)[C@@H](Cc1ccccc1)NC(=O)[C@@H](Cc1c[nH]c2ccccc12)NC(=O)[C@@H](N)CCCN=C(N)N)C(=O)N[C@H](Cc1ccccc1)C(=O)N[C@@H](Cc1c[nH]cn1)C(=O)N[C@@H](CCCCN)C(=O)N[C@@H](CCCN=C(N)N)C(=O)N[C@H](C(N)=O)[C@@H](C)O`: 5.22 and 4.84 µM (≈ 6.24 µg/mL).
The corresponding values for `CC[C@H](C)[C@H](NC(=O)[C@@H](Cc1ccccc1)NC(=O)[C@@H](Cc1c[nH]c2ccccc12)NC(=O)[C@@H](N)CCCN=C(N)N)C(=O)N[C@H](Cc1ccccc1)C(=O)N[C@@H](Cc1c[nH]cn1)C(=O)N[C@@H](CCCCN)C(=O)N[C@@H](CCCCN)C(=O)N[C@@H](CCCN=C(N)N)C(N)=O` are 5.79 and 2.32 µM (≈ 3.05 µg/mL).
In turn, `CC[C@H](C)[C@H](NC(=O)[C@@H](Cc1ccccc1)NC(=O)[C@@H](Cc1c[nH]c2ccccc12)NC(=O)[C@@H](N)CCCN=C(N)N)C(=O)N[C@H](Cc1ccccc1)C(=O)N[C@@H](Cc1c[nH]cn1)C(=O)N[C@@H](CCCCN)C(=O)N[C@@H](CCCCN)C(=O)N[C@H](C(N)=O)[C@@H](C)O` gave a pIC50 in assay [1] of 5.62. In assay [2], the minimum inhibitory concentration (MIC) was 2.44 µM (≈ 3.08 µg/mL).
The matching figures for `CC[C@H](C)[C@H](NC(=O)[C@@H](Cc1ccccc1)NC(=O)[C@@H](Cc1c[nH]c2ccccc12)NC(=O)[C@@H](N)CCCN=C(N)N)C(=O)N[C@H](Cc1ccccc1)C(=O)N[C@@H](Cc1c[nH]cn1)C(=O)N[C@@H](CCCCN)C(=O)N[C@@H](CCCCN)C(=O)N[C@@H](Cc1c[nH]c2ccccc12)C(N)=O`: 5.58 and 1.14 µM (≈ 1.54 µg/mL).
The molecule `CC[C@H](C)[C@H](NC(=O)[C@@H](Cc1ccccc1)NC(=O)[C@@H](Cc1c[nH]c2ccccc12)NC(=O)[C@@H](N)CCCN=C(N)N)C(=O)N[C@H](Cc1ccccc1)C(=O)N[C@@H](Cc1c[nH]cn1)C(=O)N[C@@H](CCCCN)C(=O)N[C@@H](CCCCN)C(=O)N[C@@H](CC(C)C)C(N)=O` had a pIC50 in assay [1] of 5.66. The same molecule registered a minimal inhibitory concentration (MIC) in assay [2] of 2.4 µM (≈ 3.06 µg/mL).
On to `CC[C@H](C)[C@H](NC(=O)[C@@H](Cc1ccccc1)NC(=O)[C@@H](Cc1c[nH]c2ccccc12)NC(=O)[C@@H](N)CCCN=C(N)N)C(=O)N[C@H](Cc1ccccc1)C(=O)N[C@@H](Cc1c[nH]cn1)C(=O)N[C@@H](CCCCN)C(=O)N[C@@H](CCCN=C(N)N)C(=O)N[C@@H](CCC(N)=O)C(N)=O`, for which the pIC50 in assay [1] is 5.41. Besides, 4.74 µM (≈ 6.24 µg/mL) was the least that counted as inhibitory in assay [2] (MIC).
The matching figures for `CC[C@H](C)[C@H](NC(=O)[C@@H](Cc1ccccc1)NC(=O)[C@@H](Cc1c[nH]c2ccccc12)NC(=O)[C@@H](N)CCCN=C(N)N)C(=O)N[C@H](Cc1ccccc1)C(=O)N[C@@H](Cc1c[nH]cn1)C(=O)N[C@@H](CCCCN)C(=O)N[C@@H](CCCN=C(N)N)C(=O)N[C@@H](CC(=O)O)C(N)=O`: 5.11 and 4.79 µM (≈ 6.24 µg/mL).
As for `CC[C@H](C)[C@H](NC(=O)[C@@H](Cc1ccccc1)NC(=O)[C@@H](Cc1c[nH]c2ccccc12)NC(=O)[C@@H](N)CCCN=C(N)N)C(=O)N[C@H](Cc1ccccc1)C(=O)N[C@@H](Cc1c[nH]cn1)C(=O)N[C@@H](CCCCN)C(=O)N[C@@H](CCCN=C(N)N)C(=O)N[C@@H](CO)C(N)=O`, in assay [1], the pIC50 was 5.36. For the same molecule, the lowest concentration to inhibit growth in assay [2] (MIC) was 4.89 µM (≈ 6.24 µg/mL).

In general, pIC50 refers to the IC50 on a negative log10 scale, so that one unit is a factor of ten. Lower therefore signals a large IC50. The term MIC denotes the least concentration at which growth counts as inhibited. A lower MIC goes with inhibition by little substance.
